39 molecules from the Kinase Knowledgebase extract (Sharma et al. 2016) can be followed below.

The term IC50 denotes the concentration that gives 50% inhibition.

One assay concerns the target PIK3CG (human) (UniProt P48736). Kind of assay: Assessment of PI3KCG Kinase Activity.
In the next assay the target is PIK3CD (Human) (UniProt O00329). Description: Assessment of PI3KCD Kinase Activity.
PIK3CD (Human), sequence (O00329 whole entry, looked up): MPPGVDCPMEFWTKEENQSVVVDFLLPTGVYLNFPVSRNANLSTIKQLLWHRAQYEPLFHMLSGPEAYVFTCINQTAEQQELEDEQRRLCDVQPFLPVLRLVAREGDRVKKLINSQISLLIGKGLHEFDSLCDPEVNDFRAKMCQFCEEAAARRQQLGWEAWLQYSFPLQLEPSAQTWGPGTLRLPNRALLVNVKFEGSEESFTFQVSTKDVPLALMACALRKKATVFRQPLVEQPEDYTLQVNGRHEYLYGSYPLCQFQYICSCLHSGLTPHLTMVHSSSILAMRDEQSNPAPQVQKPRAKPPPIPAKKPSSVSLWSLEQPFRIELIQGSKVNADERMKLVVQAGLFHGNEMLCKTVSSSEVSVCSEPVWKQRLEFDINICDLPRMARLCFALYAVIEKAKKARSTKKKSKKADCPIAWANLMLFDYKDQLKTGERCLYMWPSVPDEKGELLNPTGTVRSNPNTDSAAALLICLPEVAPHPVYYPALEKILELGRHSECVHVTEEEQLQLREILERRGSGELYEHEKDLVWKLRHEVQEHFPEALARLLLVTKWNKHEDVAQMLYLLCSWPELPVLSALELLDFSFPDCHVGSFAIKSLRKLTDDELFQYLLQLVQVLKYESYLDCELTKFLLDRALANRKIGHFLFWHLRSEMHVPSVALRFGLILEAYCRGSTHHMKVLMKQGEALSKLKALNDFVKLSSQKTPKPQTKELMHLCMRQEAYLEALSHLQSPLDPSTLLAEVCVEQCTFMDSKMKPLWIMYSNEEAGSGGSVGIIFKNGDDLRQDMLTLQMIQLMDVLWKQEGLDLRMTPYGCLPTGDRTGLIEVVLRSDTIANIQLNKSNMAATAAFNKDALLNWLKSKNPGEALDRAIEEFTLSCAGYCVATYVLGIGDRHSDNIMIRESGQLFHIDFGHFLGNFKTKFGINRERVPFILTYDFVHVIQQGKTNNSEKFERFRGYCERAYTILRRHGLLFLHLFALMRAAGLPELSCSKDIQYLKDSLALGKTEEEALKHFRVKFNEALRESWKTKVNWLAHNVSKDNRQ

PIK3CG (human), sequence (P48736 whole entry, looked up): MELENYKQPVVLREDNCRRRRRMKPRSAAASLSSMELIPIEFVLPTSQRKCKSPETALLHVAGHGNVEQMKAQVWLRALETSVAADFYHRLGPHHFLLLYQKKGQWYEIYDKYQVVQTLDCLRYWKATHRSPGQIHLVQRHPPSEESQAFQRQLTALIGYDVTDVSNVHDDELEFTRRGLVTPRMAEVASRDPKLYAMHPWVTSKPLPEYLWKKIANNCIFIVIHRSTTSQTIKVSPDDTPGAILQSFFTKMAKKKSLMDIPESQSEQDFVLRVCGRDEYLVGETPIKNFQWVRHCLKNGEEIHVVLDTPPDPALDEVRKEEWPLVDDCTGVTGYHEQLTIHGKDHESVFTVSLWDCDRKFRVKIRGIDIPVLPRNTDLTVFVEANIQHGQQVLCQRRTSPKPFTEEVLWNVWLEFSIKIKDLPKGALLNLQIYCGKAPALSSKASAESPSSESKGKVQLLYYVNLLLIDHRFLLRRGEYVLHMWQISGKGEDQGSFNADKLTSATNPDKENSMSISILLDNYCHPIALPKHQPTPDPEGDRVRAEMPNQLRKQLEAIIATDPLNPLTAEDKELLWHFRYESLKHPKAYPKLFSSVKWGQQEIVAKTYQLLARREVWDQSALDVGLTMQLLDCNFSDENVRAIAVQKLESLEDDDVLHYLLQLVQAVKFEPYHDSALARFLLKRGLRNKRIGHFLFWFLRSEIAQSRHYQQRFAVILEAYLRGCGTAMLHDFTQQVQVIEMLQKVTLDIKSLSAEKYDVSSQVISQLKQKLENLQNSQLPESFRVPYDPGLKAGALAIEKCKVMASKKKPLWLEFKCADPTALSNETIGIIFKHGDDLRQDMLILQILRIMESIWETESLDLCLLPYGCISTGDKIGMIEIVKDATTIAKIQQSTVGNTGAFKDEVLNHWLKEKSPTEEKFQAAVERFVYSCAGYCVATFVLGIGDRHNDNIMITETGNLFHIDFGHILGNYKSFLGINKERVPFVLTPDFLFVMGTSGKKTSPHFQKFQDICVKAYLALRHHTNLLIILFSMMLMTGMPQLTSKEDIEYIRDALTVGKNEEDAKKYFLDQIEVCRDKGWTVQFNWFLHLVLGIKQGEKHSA

On to `Cc1cccc2cc(Cn3nc(I)c4c(N)ncnc43)n(-c3ccccc3C(C)C)c(=O)c12`, for which the half-maximal inhibitory concentration (IC50) against PIK3CG (human) and on PIK3CD (Human) was less than 100 nM each time.
As to `COc1ccccc1-n1c(Cn2nc(-c3cccc(O)c3)c3c(N)ncnc32)cc2cccc(C)c2c1=O`, the IC50 against PIK3CG (human) and at PIK3CD (Human) was less than 100 nM in each case.
As for `Cc1cccc2cc(Cn3nc(I)c4c(N)ncnc43)n(C3CC3)c(=O)c12`, the IC50 against PIK3CG (human) and on PIK3CD (Human) was less than 100 nM each time.
For `Cc1ccccc1-n1c(Cn2nc(Br)c3c(N)ncnc32)cc2cccc(C)c2c1=O`, the IC50 at PIK3CG (human) and against PIK3CD (Human) was less than 100 nM in each case.
Regarding `Cc1cccc2cc(Cn3nc(-c4cc(O)cc(F)c4)c4c(N)ncnc43)n(-c3ccccc3C(C)C)c(=O)c12`, the IC50 at PIK3CG (human) and at PIK3CD (Human) was less than 100 nM throughout.
For the molecule `Cc1cccc2cc(Cn3nc(-c4cccc(O)c4)c4c(N)ncnc43)n(-c3ccccc3Cl)c(=O)c12`, the IC50 at PIK3CG (human) and against PIK3CD (Human) was less than 100 nM throughout.
On to `Cc1cccc2cc(Cn3nc(-c4cc(O)cc(F)c4)c4c(N)ncnc43)n(C3CCCC3)c(=O)c12`, for which the 50% inhibitory concentration (IC50) against PIK3CG (human) and on PIK3CD (Human) was less than 100 nM each time.
For `CCc1ccccc1-n1c(Cn2nc(I)c3c(N)ncnc32)cc2cccc(C)c2c1=O`, the IC50 against PIK3CG (human) and on PIK3CD (Human) was less than 100 nM in each case.
In the case of `Cc1cccc2cc(Cn3nc(-c4cccc(O)c4)c4c(N)ncnc43)n(C3CC3)c(=O)c12`, the IC50 at PIK3CG (human) and against PIK3CD (Human) was less than 100 nM each time.
In the case of `CCc1ccccc1-n1c(Cn2nc(-c3cn[nH]c3)c3c(N)ncnc32)cc2cccc(C)c2c1=O`, the IC50 against PIK3CG (human) and against PIK3CD (Human) was less than 100 nM in each case.
For `Cc1ccccc1-n1c(Cn2nc(-c3ccc4ncnc(N)c4c3)c3c(N)ncnc32)cc2cccc(C)c2c1=O`, the IC50 on PIK3CG (human) and at PIK3CD (Human) was less than 100 nM throughout.
For the molecule `CCc1ccccc1-n1c(Cn2nc(-c3cccc(O)c3)c3c(N)ncnc32)nc2scc(C)c2c1=O`, the IC50 at PIK3CG (human) and at PIK3CD (Human) was less than 100 nM throughout.
`Cc1ccccc1-n1c(Cn2nc(-c3ccc4cc[nH]c4c3)c3c(N)ncnc32)nc2scc(C)c2c1=O`: the IC50 against PIK3CG (human) and at PIK3CD (Human) was less than 100 nM each time.
In the case of `Cc1ccccc1-n1c(Cn2nc(-c3ccc4nc(N)ccc4c3)c3c(N)ncnc32)cc2cccc(C)c2c1=O`, the IC50 at PIK3CG (human) and at PIK3CD (Human) was less than 100 nM in each case.
In turn, `COc1ccc(-c2nn(Cc3cc4cccc(C)c4c(=O)n3-c3ccccc3C)c3ncnc(N)c23)cc1` displayed a half-maximal inhibitory concentration (IC50) against PIK3CG (human) of less than 100 nM.
At PIK3CG (human), `Cc1ccccc1-n1c(Cn2nc(-c3ccn[nH]3)c3c(N)ncnc32)cc2cccc(C)c2c1=O` had a half-maximal inhibitory concentration (IC50) of less than 100 nM.
The same measure, in the same setting: the value for `COc1ccc(-c2nn(Cc3cc4cccc(C)c4c(=O)n3-c3ccccc3C)c3ncnc(N)c23)cc1OC` was less than 100 nM.
At PIK3CG (human), `Cc1ccccc1-n1c(Cn2nc(I)c3c(N)ncnc32)cc2ccccc2c1=O` returned a half-maximal inhibitory concentration (IC50) of less than 100 nM.
In turn, `Cc1cccc2cc(Cn3nc(I)c4c(N)ncnc43)n(C3CCCCC3)c(=O)c12` registered a half-maximal inhibitory concentration (IC50) on PIK3CG (human) of less than 100 nM.
The molecule `Cc1csc2nc(Cn3nc(-c4cc(O)cc(F)c4)c4c(N)ncnc43)n(-c3ccccc3Cl)c(=O)c12` showed an IC50 against PIK3CD (Human) of less than 100 nM.
The same measure, in the same setting: the value for `Cc1csc2nc(Cn3nc(Cl)c4c(N)ncnc43)n(-c3ccccc3C(F)(F)F)c(=O)c12` was less than 100 nM.
With `Cc1csc2nc(Cn3nc(-c4ccc(Cl)c(O)c4)c4c(N)ncnc43)n(-c3ccccc3F)c(=O)c12`, at PIK3CD (Human), the IC50 was less than 100 nM.
The same measure, in the same setting: the value for `Cc1ccccc1-n1c(Cn2nc(C#N)c3c(N)ncnc32)cc2cccc(C)c2c1=O` was less than 100 nM.
As to `Cc1cccc2cc(Cn3nc(-c4cn[nH]c4)c4c(N)ncnc43)n(-c3cccc(F)c3)c(=O)c12`, the IC50 against PIK3CD (Human) is less than 100 nM.
Molecule `Cc1cccc2cc(Cn3nc(I)c4c(N)ncnc43)n(-c3ccccc3F)c(=O)c12` showed a 50% inhibitory concentration (IC50) against PIK3CD (Human) of less than 100 nM.
Same read-out and setting: the value for `Cc1csc2nc(Cn3nc(C#C[C@@H](C)O)c4c(N)ncnc43)n(-c3ccccc3C(C)C)c(=O)c12` was less than 100 nM; that for `Cc1ccccc1-n1c(Cn2nc(Br)c3c(N)ncnc32)nc2sc(C)c(C)c2c1=O` was less than 100 nM.
Still for that read-out and setting: the value for `CC(C)n1c(Cn2nc(-c3cc(O)cc(F)c3)c3c(N)ncnc32)cc2cccc(F)c2c1=O` was less than 100 nM.
On the same count and under the same terms, the value for `Cc1ccccc1-n1c(Cn2nc(-c3cc(O)cc(F)c3)c3c(N)ncnc32)nc2sc(C)c(C)c2c1=O` was less than 100 nM.
`Cc1cccc2cc(Cn3nc(-c4ccc(O)c(Cl)c4)c4c(N)ncnc43)n(-c3ccccc3F)c(=O)c12` returned an IC50 against PIK3CG (human) of less than 100 nM.
As for `Cc1ccccc1-n1c(Cn2nc(-c3cc(O)cc(F)c3)c3c(N)ncnc32)nc2c(C)nn(C)c2c1=O`, on PIK3CD (Human), the half-maximal inhibitory concentration (IC50) is less than 100 nM.
Still for that read-out and setting: the value for `Cc1ccccc1-n1c(Cn2nc(-c3cccc(O)c3)c3c(N)ncnc32)nc2cnn(C)c2c1=O` was less than 100 nM; that for `Cc1ccccc1-n1c(Cn2nc(Br)c3c(N)ncnc32)nc2nccc(C)c2c1=O` was less than 100 nM; that for `Cc1cccnc1-n1c(Cn2nc(-c3cccc(O)c3)c3c(N)ncnc32)nc2scc(C)c2c1=O` was less than 100 nM.
Same read-out and setting: the value for `C=Cc1nn(Cc2cc3cccc(C)c3c(=O)n2-c2ccccc2C)c2ncnc(N)c12` was less than 100 nM; that for `Cc1cccc2cc(Cn3nc(-c4cc(O)cc(F)c4)c4c(N)ncnc43)n(C)c(=O)c12` was less than 100 nM.
On PIK3CD (Human), `CCn1c(Cn2nc(-c3cccc(O)c3)c3c(N)ncnc32)cc2cccc(C)c2c1=O` came in with an IC50 of less than 100 nM.
With `Cc1ccccc1-n1c(Cn2nc(Br)c3c(N)ncnc32)nc2scc(C(F)(F)F)c2c1=O`, at PIK3CD (Human), the half-maximal inhibitory concentration (IC50) is less than 100 nM.
For `COc1ccccc1-n1c(Cn2nc(-c3cccc(O)c3)c3c(N)ncnc32)nc2scc(C)c2c1=O`, at PIK3CD (Human), the half-maximal inhibitory concentration (IC50) is less than 100 nM.
